The values below come from patent US20060013804A1, “Modulation of stem cell differentiation by modulation of caspase-3 activity” (Ottawa Health Research Institute, priority 2002, published 2006).

For experiment [1], the system named is PARP cleavage. The experiment is described as follows: PARP cleavage by Western blot in differentiating C2C12 myoblasts. It is filed as cell-based, mouse. Conditions: C2C12, treated vs untreated. As to the method: (§1) Protein isolation, immunoblot analyses and immunocytochemistry. Cells from C2C12 and primary myoblast cultures were washed with ice-cold PBS and lysed on ice for 45 minutes in modified-RIPA buffer containing 20 mM NaF, 5 mM Na3VO4 and 10 μg/ml each of aprotinin, leupeptin, pepstatin and PMSF. Total protein was measured using the BCA protein assay (Pierce). Immunoblot analyses were performed as described (Creasy, C. L., & Chernoff, J. (1995) J. Biol. Chem. 270, 21695-21700) using antibodies for MST1, MKK6, p38γ, and p38α (Upstate), p38 and MEF2C (Cell Signaling Technologies), myogenin F5D and myosin heavy chain MF20 mAb (Developmental Hybridoma Bank), and active caspase-3 (Biovision).
Cells were fixed after 0, 2 and 4 days of differentiation and stained with the myosin heavy chain antibody MF20. […] In contrast, differentiation was more evident in cells that were incubated with caspase-8 inhibitor, z-LETD.fmk (FIG. 2B bottom panel, C).
(In general: In western blotting, separated proteins are transferred to a membrane and probed.)

In experiment [2] the test system is MST1. Nature of the experiment: MST1 immunoblot and immunoprecipitation/Histone H1 kinase assay from C2C12 lysates. It is filed as cell-based, mouse. Conditions: for full-length MST1 protein level: C2C12, initial 24 h of low serum, Western blot. The protocol:
as §1
Co-immunoprecipitation and kinase analyses. Immunoprecipitation was performed using 150-200 μg of total protein, incubated in modified-RIPA buffer at 4° C. for 16 h containing the respective antibody. Samples were mixed for 1 h with 25 μl of a 50% Protein G (Pharmacia). For co-immunoprecipitation, immunoprecipitates were washed in modified-RIPA buffer, boiled in 1× Lamelli buffer, separated by SDS-PAGE and Western blotted for immunoblot analyses. Immunoprecipitates used for kinase analyses were washed in modified-RIPA buffer and incubated in kinase buffer containing 20 mM MOPS (pH 7.2), 25 mM β-glycerophosphate, 5 mM EGTA, 1 mM Na3VO4 and 1 mM DTT supplemented with [γ-^32P]ATP and either recombinant MBP or recombinant Histone H1 (Upstate) as the target substrate. Samples were incubated for 30 min at 37° C. and then boiled in 1× Lamelli buffer. Following SDS-PAGE, gels were dried and phospho-incorporation was analyzed by autoradiography.
One kinase that was altered in activity co-migrated with a predicted pI (5.2) and molecular weight (36 kDa) consistent with Mammalian Sterile Twenty-like kinase (MST1). MST1 is a known caspase-3 activated kinase homologous to the yeast family of serine/threonine Ste20 kinases (Lechner, C., et al., (1996) Proc. Natl. Acad. Sci. USA 93, 43554359; Megeney, L. A., et al., (1996) Genes Dev 10, 1173-1183). […]

Experiment [3] concerns PAK2. The experiment is described as follows: Immunoprecipitation/kinase assay of PAK2 from neurospheres. It is filed as cell-based, mouse. As to conditions: inhibited vs control treated cultures, neurosphere differentiation.
The subject of experiment [4] is MST1. Nature of the experiment: Proteolysis of in vitro translated 35S-methionine labelled MST1 by C2C12 lysates. Format: biochemical, human. Conditions: 35S-labelled MST1 incubated with lysates of inhibitor-treated C2C12 cells. As to the method: Transfection Assays. The complete open reading frame of the human MST1, [Genbank Accession No. gi|1117790] obtained from a clone bank collection (Stratagene) was inserted into the expression vector pcDNA3.1 Myc/His (Invitrogen). A constitutively active MST1 (MST1-act) was prepared as previously described (Megeney, L. A., et al., (1996) Genes Dev 10, 1173-1183). The integrity of both MST1 and MST1-act were confirmed by sequencing. The kinase activity of these protein products were verified by transient transfection into COS1 cells followed by immunoprecipitation and kinase analysis using Histone-H1 as the target substrate (see below). Transfections with MST1 and MST1-act into both COS1 and primary myoblasts were performed using Lipofectamine Plus (Gibco) as directed in the manufacturer's instructions.
In vitro translation and MST1 proteolysis. MST1-pcDNA3.1 Myc/His was in vitro transcribed and translated using a TnT T7 Coupled Wheat Germ Extract System (Promega). The labelling efficiency was verified by SDS-PAGE, Coomassie-staining and autoradiography. […] The proteolytic cleavage of MST1 was assessed by SDS-PAGE and autoradiography.
One kinase that was altered in activity co-migrated with a predicted pI (5.2) and molecular weight (36 kDa) consistent with Mammalian Sterile Twenty-like kinase (MST1). […]

Turning to `COC(=O)CC[C@H](NC(=O)[C@H](CC(=O)OC)NC(=O)OCc1ccccc1)C(=O)N[C@H](C(=O)N[C@@H](CC(=O)OC)C(=O)CF)C(C)C` [z-DEVD.fmk], the PARP cleavage products result is listed as “Comparable levels of PARP cleavage” in experiment [1] (listed as Z-DEVD.fmk) and “accumulated to a similar degree” in experiment [1] (listed as z-DEVD). Also, the “full-length MST1 protein level” value in experiment [2] was “remained relatively unchanged”; in experiment [2] (listed as caspase-3 inhibitor) it was “does not change”. In addition, in experiment [2] (MST1 immunoprecipitated from C2C12 lysates, 12 h low serum media), the “MST1 kinase activity (Histone H1 phosphorylation)” value is listed as “no phosphorylation above basal levels was detectable”. The PAK2 activity entry in experiment [3] is “did not observe differences in PAK2 activity”. Further, the “36 kDa MST1 cleavage fragment” value in experiment [4] is on record as “not apparent”; in experiment [4] (listed as caspase-3 inhibitor), “absent in caspase-3 inhibited samples”.
